Reference: patent publication US20220280542A1, “PHOSPHORAMIDATES FOR THE TREATMENT OF HEPATITIS B VIRUS” (priority 2016, published 2022)

Legend:
Format in all cases: cell-based
[1] = Cytotoxicity by XTT staining in the HBV efficacy assay; details: human, HepG2.2.15 cells
Experimental: HepG2.2.15 cells (100 μL) in RPMI1640 medium with 10% fetal bovine serum was added to all wells of a 96-well plate at a density of 1×10^4 cells per well and the plate was incubated at 37° C. in an environment of 5% CO2 for 24 hours. Following incubation, six ten-fold serial dilutions of test compound prepared in RPMI1640 medium with 10% fetal bovine serum were added to individual wells of the plate in triplicate. Six wells in the plate received medium alone as a virus only control. The plate was incubated for 6 days at 37° C. in an environment of 5% CO2. The culture medium was changed on day 3 with medium containing the indicated concentration of each compound. One hundred microliters of supernatant was collected from each well for analysis of viral DNA by qPCR and cytotoxicity was evaluated by XTT staining of the cell culture monolayer on the sixth day.
The 50% cytotoxic concentration for the test materials are derived by measuring the reduction of the tetrazolium dye XTT in the treated tissue culture plates. XTT is metabolized by the mitochondrial enzyme NADPH oxidase to a soluble formazan product in metabolically active cells. XTT solution was prepared daily as a stock of 1 mg/mL in PBS. Phenazine methosulfate (PMS) stock solution was prepared at 0.15 mg/mL in PBS and stored in the dark at −20° C. XTT/PMS solution was prepared immediately before use by adding 40 μL of PMS per 1 mL of XTT solution. Fifty microliters of XTT/PMS was added to each well of the plate and the plate incubated for 2-4 hours at 37° C. The 2-4 hour incubation has been empirically determined to be within linear response range for XTT dye reduction with the indicated numbers of cells for each assay. Adhesive plate sealers were used in place of the lids, the sealed plate was inverted several times to mix the soluble formazan product and the plate was read at 450 nm (650 nm reference wavelength) with a Molecular Devices SpectraMax Plus 384 spectrophotometer. Data were collected by Softmax 4.6 software and imported into an Excel spreadsheet for analysis.

[2] = Cytotoxicity (CC50) CEM; details: human, CEM cells
[3] = Cytotoxicity (CC50) A549; details: human, A549 cells
[4] = Cytotoxicity (CC50) Huh-7; details: human, Huh-7 cells
[5] = Cytotoxicity (CC50) HepG2; details: human, HepG2 cells
[6] = Cytotoxicity (CC50) H9c; details: rat, H9c cells
[7] = Cytotoxicity (CC50) A204; details: human, A204 cells
[8] = Cytotoxicity (CC50) BxPC3; details: human, BxPC3 cells
[9] = Cytotoxicity (CC50) IEC-6; details: rat, IEC-6 cells
[10] = Cytotoxicity (CC50) Vero; details: African green monkey, Vero cells

| SMILES | CC50 at 6 days [1] | CC50 [2] | CC50 [3] | CC50 [4] | CC50 [5] | CC50 [6] | CC50 [7] | CC50 [8] | CC50 [9] | CC50 [10] |
| --- | --- | --- | --- | --- | --- | --- | --- | --- | --- | --- |
| Cc1cn([C@H]2O[C@@H](CO[P@@](=O)(N[C@@H](C)C(=O)OC(C)C)Oc3ccccc3)[C@H](O[P@@](=O)(N[C@@H](C)C(=O)OC(C)C)Oc3ccccc3)[C@H]2F)c(=O)[nH]c1=O [EIDD-02308] | > 100 µM | – | – | – | – | – | – | – | – | – |
| Cc1cn([C@H]2O[C@@H](CO[P@@](=O)(N[C@@H](C)C(=O)OC(C)C)Oc3ccccc3)C(O)C2F)c(=S)[nH]c1=O (stereo partly drawn) [EIDD-02335-1] | > 100 µM | – | – | – | – | – | – | – | – | – |
| Cc1cn([C@H]2O[C@@H](CO)C(O)C2F)c(=S)[nH]c1=O (stereo partly drawn) [EIDD-02333-1] | > 100 µM | – | – | – | – | – | – | – | – | – |
| Cc1cn([C@H]2O[C@@H](CO[P@](=O)(N[C@@H](C)C(=O)OC(C)C)Oc3ccccc3)C(O)C2F)c(=S)[nH]c1=O (stereo partly drawn) [EIDD-02334-1] | > 100 µM | – | – | – | – | – | – | – | – | – |
| Cc1cn([C@H]2O[C@@H](CO[P@](=O)(N[C@@H](C)C(=O)OC(C)C)Oc3ccccc3)[C@H](O)[C@H]2F)c(=O)[nH]c1=O [EIDD-02174] | > 100 µM | > 400 µM | > 400 µM | 290 µM | > 400 µM | 311 µM | 374 µM | > 400 µM | 338 µM | > 400 µM |
| Cc1cn([C@H]2O[C@@H](CO)[C@H](O)[C@H]2F)c(=O)[nH]c1=O [EIDD-02020, Clevudine, reference compound] | > 100 µM | > 400 µM | > 400 µM | > 400 µM | > 400 µM | > 400 µM | > 400 µM | > 400 µM | > 400 µM | > 400 µM |
| Cc1cn([C@H]2O[C@@H](CO[P@](=O)(N[C@@H](C)C(=O)OC(C)C)Oc3ccccc3)[C@H](O[P@](=O)(N[C@@H](C)C(=O)OC(C)C)Oc3ccccc3)[C@H]2F)c(=O)[nH]c1=O [EIDD-02309] | 85.1 µM | – | – | – | – | – | – | – | – | – |
| Cc1cn([C@H]2O[C@@H](CO[P@@](=O)(N[C@@H](C)C(=O)OC(C)C)Oc3ccccc3)[C@H](O)[C@H]2F)c(=O)[nH]c1=O [EIDD-02173] | > 100 µM | 140 µM | > 400 µM | > 400 µM | > 400 µM | 344 µM | 330 µM | > 400 µM | 307 µM | > 400 µM |
| Nc1ccn([C@@H]2CS[C@H](CO)O2)c(=O)n1 [3TC (Lamivudine), Lamivudine, reference compound] | > 10 µM | – | – | > 400 µM | > 400 µM | – | – | > 400 µM | – | – |
